For 74 compounds, fluorescence response, % of control results are on record in PubChem BioAssay AID588620 (NMMLSC, 2011).

The structures appear in SMILES notation. Active and inactive are the calls of the source.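 The calls were made as follows: active = fitted half-maximal concentration below 30 µM for cell fluorescence in pump-free yeast, so likely self-fluorescent; inactive = the rest.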

This experiment can be described thus: concentration-dependent intrinsic compound fluorescence, S. cerevisiae AD/pABC3, flow cytometry, Cherry Pick1 hits, artefact control for antifungal efflux pump inhibitor project, dose response (AID 588620).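 Also: red emission of unstained cells excited at 488 nm measured in PE-Texas Red channel; cell median fluorescence as percent of DMSO wells so 100% equals vehicle baseline.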 To be noted: S. cerevisiae AD/pABC3 compound autofluorescence, flow cytometry; at 33.1 µM (top of the series). A general note: In flow cytometry, cells or beads pass a laser one at a time.
On to `COCCn1c(=S)[nH]c2sc3c(c2c1=O)CCCC3`, for which the fluorescence response, % of control is 91.7% (inactive).
Regarding `Cc1ccc(C(=O)N2CCC3(CC2)Oc2ccc(Cl)cc2C(=O)C32CC(c3cccnc3)=NO2)s1` (centres undefined), the fluorescence response, % of control is 127% (inactive).
The result for `O=C(O)c1nccnc1C(=O)N1CCN(c2ccccc2)CC1` reads 121% (inactive); that for `NC(=O)c1nc(-c2ccco2)nc2c1[nH]c(=O)n2-c1ccc(Cl)c(Cl)c1`, 112% (inactive); that for `c1cc2c(cc1C1CCCCC1)c1c3n2CCCNC3CCC1` (centres undefined), 132% (inactive).
In the case of `O=C(Oc1ccc2c(=O)c(Oc3ccc4ccccc4c3)coc2c1)c1cncc(Br)c1`, the fluorescence response, % of control was 90.5% (inactive).
Then `Cc1ccc(C)c(C(=O)COC(=O)c2ccc(C)c(S(=O)(=O)N3CCOCC3)c2)c1`, with 93.5% (inactive); and `CCOc1ccccc1-c1nc(C(N)=O)c2[nH]c(=O)n(-c3ccc(F)cc3)c2n1`, with 136% (inactive); and `O=C(Cc1cccs1)N1CCN=C1SCc1ccccc1Cl`, with 121% (inactive).
The result for `CCOC(=O)c1cccc(NC(=O)c2ccc(NC(=O)c3ccco3)cc2)c1` reads 85.8% (inactive).
Then `Cc1ccc(Cl)cc1N1CCN(c2cccc[n+]2C)CC1`, with 95.1% (inactive); and `CC(C)C(O)(C#CCN1CCCCC1)C(C)C`, with 111% (inactive).
As for `CCCCOc1ccc(NC2=NC3(CCCC3)N=C(N)N2)cc1`, the fluorescence response, % of control was 73.8% (inactive).
With `CCOc1cc2[nH]c(=S)n(CCC(=O)NCc3ccc(OC)cc3)c(=O)c2cc1OCC`, the fluorescence response, % of control was 93.1% (inactive).
The result for `O=C(COC(=O)c1ccc(S(=O)(=O)N2CCCCC2)cc1)NCc1ccco1` reads 91.7% (inactive); that for `COc1cc2c(cc1OC)C(=O)N1[C@H]3c4cc(C)ccc4OC[C@@H]3[C@H](c3ccccc3)[C@]1(C)C(=O)N2`, 99.3% (inactive); that for `Cc1ccc(C(=O)N2CCC3(CC2)Oc2ccc(Cl)cc2C(=O)C32CC(c3ccc(Cl)cc3)=NO2)s1` (centres undefined), 94.5% (inactive).
`O=C(NC(=Nc1nc2ccccc2o1)NC(=O)c1ccccc1)c1ccccc1`: the fluorescence response, % of control is 102% (inactive).
As for `CCC1Nc2ncnc(N3CCN(c4ccccn4)CC3)c2N(Cc2ccc(Br)cc2)C1=O` (centres undefined), the fluorescence response, % of control is 85.4% (inactive).
The result for `Cc1ccc(CN2C(=O)C(Cc3ccccc3)Nc3ncnc(N4CCN(c5ccccc5)CC4)c32)cc1` (centres undefined) reads 111% (inactive); that for `COc1cccc(CN(CC(=O)NCC2CCCO2)C(=O)CCC(=O)Nc2cc(C)on2)c1` (centres undefined), 103% (inactive); that for `CC(C)(C)c1ccc(-n2ncc3c2CCCC3NC(=O)c2cnccn2)cc1` (centres undefined), 90.8% (inactive).
Take `NC(=S)NNC(=O)[C@@H]1CCCC[C@@H]1C(=O)O`: the fluorescence response, % of control is 117% (inactive).
The result for `O=C(CCCc1ccccc1)Nc1cccc([N+](=O)[O-])c1` reads 86.2% (inactive); that for `CCCCc1nnc(NC(=O)COc2ccc3c(C)cc(=O)oc3c2)s1`, 134% (inactive).
For the compound `COc1ccc2sc(-c3ccccc3OC)c(-c3ccc(OCCN(C)C)cc3)c2c1`, the fluorescence response, % of control was 118% (inactive).
The result for `CCn1ncc(Br)c1C(=O)Nc1cc(C)cc(C)c1` reads 129% (inactive); that for `COc1ccc(-c2ccc3c(c2)S(=O)(=O)c2cccc(C(=O)NC4CCCCC4)c2C3=O)cc1OC`, 106% (inactive).
Consider `O=c1[nH]c(C2CCN(S(=O)(=O)c3ccccc3C(F)(F)F)CC2)nc2c1nnn2Cc1cccc(F)c1`, for which the fluorescence response, % of control was 83.7% (inactive).
Regarding `CCCCCCCCCCOC(=O)Cn1c(COc2ccc(Cl)cc2)[n+](C)c2ccccc21`, the fluorescence response, % of control was 106% (inactive).
Then `COc1ccc(C2c3ccc4ccccc4c3Oc3ncn(CCN4CCOCC4)c(=N)c32)cc1` (centres undefined), with 135% (inactive); and `COc1ccc2nc(C)cc(Sc3nc4ccccc4s3)c2c1`, with 100% (inactive).
Then `Cc1ccc(S(=O)(=O)N2CCOCC2)cc1NC(=O)COC(=O)CNC(=O)c1ccccc1`, with 102% (inactive); and `CCO[C@@H]1OC(C(=O)Nc2ccccc2)=C[C@H](c2ccc(Br)cc2)[C@H]1CCCO`, with 102% (inactive).
Take `COc1ccc2sc(-c3ccccc3OC)c(-c3ccc(OCCN4CCCC4)cc3)c2c1`: the fluorescence response, % of control is 114% (inactive).
Then `COc1ccc(NC(=O)Nc2cccc3c2O[C@H](CN(C)C(=O)NC2CCCCC2)[C@@H](C)CN([C@H](C)CO)C3=O)cc1`, with 80.3% (inactive).
`CCCCCCCCCCOC(=O)Cn1c(COc2cccc(C)c2)[n+](C)c2ccccc21`: the fluorescence response, % of control is 105% (inactive).
As for `O=C(Nc1ccccc1C(=O)O)c1ccc(NC(=O)c2ccc(Br)o2)cc1`, the fluorescence response, % of control is 107% (inactive).
Then `COc1ccc(-c2sc3ccccc3c2-c2ccc(OCCN3CCOCC3)cc2)cc1`, with 111% (inactive); and `COCCOC(=O)c1c(C)oc2ccc(NS(=O)(=O)c3ccc(F)cc3)cc12`, with 90.9% (inactive).
Then `COc1ccc(OC)c(-c2nc(C(N)=O)c3[nH]c(=O)n(-c4ccc(F)cc4)c3n2)c1`, with 104% (inactive).
Take `O=C1/C(=C/c2ccc(O)c(O)c2)Oc2cc(O)ccc21`: the fluorescence response, % of control was 426% (inactive).
Turning to `O=C(NNc1cc(N2CCCC2)nc(N2CCCC2)n1)c1ccc([N+](=O)[O-])cc1`, the fluorescence response, % of control was 95.7% (inactive).
Then `Cc1noc(C)c1COc1ccccc1C(=O)N1CCN(c2cccc(C(F)(F)F)c2)CC1`, with 88.1% (inactive).
As to `CCCCSC1=N/C(=C/c2ccsc2)C(=O)N1c1ccccc1`, the fluorescence response, % of control is 95.7% (inactive).
Take `COc1ccc(CCOC(=O)c2ccc(N)c([N+](=O)[O-])c2)cc1`: the fluorescence response, % of control was 110% (inactive).
In the case of `COc1cc(CNC(C)(C)CO)cc(Br)c1OCc1ccc(Cl)cc1`, the fluorescence response, % of control was 130% (inactive).
`O=C(c1ccc2c(c1)OCO2)N1CCC2(CC1)Oc1ccc(F)cc1C(=O)C21CC(c2ccccc2)=NO1` (centres undefined): the fluorescence response, % of control is 139% (inactive).
In the case of `COc1ccc(-n2ncc3c2CC(C)(C)CC3NC(=O)c2cn[nH]c2)cc1` (centres undefined), the fluorescence response, % of control was 110% (inactive).
The result for `O=S(=O)(NCCc1cn2ccccc2n1)c1ccc(F)c(C(F)(F)F)c1` reads 118% (inactive); that for `CC(C)c1ccc(C(=O)NC(=S)Nc2ccc3[nH]c(=O)[nH]c3c2)cc1`, 158% (inactive).
Then `Cc1cnc(C(=O)NC2CC(C)(C)Cc3c2cnn3-c2ccccc2)cn1` (centres undefined), with 98.5% (inactive); and `O=c1[nH]c(C2CCN(S(=O)(=O)c3ccc4c(c3)OCCO4)CC2)nc2c1nnn2Cc1ccc(F)cc1`, with 94.5% (inactive); and `CC(C)(C)c1cc(C(c2cccnc2)N2CCN(CCO)CC2)cc(C(C)(C)C)c1O` (centres undefined), with 78.8% (inactive).
Then `COc1ccc(CNC(=O)C(=O)NCC2OCCN2S(=O)(=O)c2ccc(OC)c(OC)c2)cc1` (centres undefined), with 99.3% (inactive); and `COc1ccc2c(c1)OC[C@H]1[C@H]2N2C(=O)c3ccc(C)cc3NC(=O)[C@@]2(C)[C@H]1c1ccccc1`, with 106% (inactive); and `CC(C)C(=O)N1CCC2(CC1)Oc1ccc(F)cc1C(=O)C21CC(c2ccc(Cl)cc2)=NO1` (centres undefined), with 105% (inactive).
For `O=c1[nH]c(C2CCN(S(=O)(=O)c3ccc4c(c3)OCCO4)CC2)nc2c1nnn2Cc1ccccc1F`, the fluorescence response, % of control is 82.5% (inactive).
For the compound `O=C(O)CCN1C(=O)/C(=C/c2ccc(-c3nc4ccccc4s3)o2)SC1=S`, the fluorescence response, % of control is 234% (inactive).
The result for `O=C(/C=C/c1ccccc1Cl)NCCc1ccccc1` reads 89.7% (inactive); that for `COc1ccc2nc(NC(=O)c3ccoc3C)sc2c1`, 117% (inactive).
As to `O=C1/C(=C\c2ccc(-c3ccccc3Cl)o2)SC(=S)N1CC1CCCO1` (centres undefined), the fluorescence response, % of control is 150% (inactive).
Turning to `COc1ccc(-c2nc3ccccc3c(=O)n2CCOc2ccc(C)cc2C)cc1`, the fluorescence response, % of control was 113% (inactive).
For `COc1ncccc1C(=O)NC1CCCc2c1cnn2-c1cc(C)cc(C)c1` (centres undefined), the fluorescence response, % of control was 76.4% (inactive).
The result for `CCc1c(C)nc2cc(-c3cc(OC)cc(OC)c3)nn2c1N1CCN(CCN2CCOCC2)CC1` reads 130% (inactive); that for `COc1ccc(CCC(=O)NNC(=O)Cn2nc(C)cc2C)cc1`, 100% (inactive).
For `Cc1c(CCOC(=O)CC23CC4CC(CC(C)(C4)C2)C3)sc[n+]1Cc1ccc([N+](=O)[O-])cc1`, the fluorescence response, % of control was 83.6% (inactive).
For `Cc1ccc(-c2c3c([nH]c(=S)c2C#N)CCCC3)o1`, the fluorescence response, % of control is 162% (inactive).
The result for `Cc1cc(Cl)c(OCCCn2ccnc2)c(Br)c1` reads 83.7% (inactive); that for `CC(C)C(=O)N1CCC2(CC1)Oc1ccc(Cl)cc1C(=O)C21CC(c2ccc(Cl)cc2)=NO1` (centres undefined), 111% (inactive).
Then `CC(C)(C)C1CCC(OC(=O)C[N+]2(C)CCCC2)CC1` (centres undefined), with 109% (inactive).
Consider `COc1ccc(/C=N/N=C2/NC(=O)C(CC(=O)O)S2)cc1OCc1ccc(Cl)cc1` (centres undefined), for which the fluorescence response, % of control is 91.7% (inactive).
Then `O=C(COC(=O)c1c(Cl)cccc1Cl)NCC1CCCO1` (centres undefined), with 106% (inactive).
On to `COc1ccc(/C=C2\SC(=O)N(CCC(=O)Nc3ccccc3)C2=O)cc1OC`, for which the fluorescence response, % of control is 99.1% (inactive).
